Results reported in PMC9715617 (Frontiers in Pharmacology, 2022).

Target: SARS-CoV-2 3CL^pro (Severe acute respiratory syndrome coronavirus 2, UniProt P0DTD1)
Assay: SARS-CoV-2 3CLpro enzyme inhibition assay (fluorophore-quencher peptide substrate)
Type: biochemical
Settings: for IC50: 200 nM 3CLpro, 20 min preincubation, 30 min at 25°C, triplicate
Protocol: Fluorescence intensity was measured on a microplate reader (λex = 485 nm; λem = 528 nm). Experiment was performed in triplicate.

SMILES	IC50	inhibition activity, times stronger than that of ML300 (ratio of IC50 values vs ML300)
O=C(NCc1ccccc1)[C@@H](c1cccnc1)N(C(=O)c1ccco1)c1ccc(-c2cccs2)cc1 [Hit 4]	750 ± 40 nM	
C[C@H](NC(=O)[C@@H](c1cccnc1)N(C(=O)c1ccno1)c1ccc(C2CCCCC2)cc1)c1cccc(F)c1F [Hit 3]	90 ± 20 nM	
O=C(N[C@@H](c1cccc(F)c1)C(F)(F)F)[C@@H](c1cnccn1)N(C(=O)c1ccco1)c1ccc(C2CCCCC2)cc1 [Hit 1]	17 ± 3 nM	about 236 times
O=C(Nc1ccc(N(Cc2ccsc2)C(=O)Cn2nnc3ccccc32)cc1)C1CC1 [ML300, reference compound]	4010 ± 660 nM	
O=C(NCc1c(F)c(F)c(F)c(F)c1F)[C@@H](c1cccnc1)N(C(=O)c1ccno1)c1ccc(-c2cccs2)cc1 [Hit 2]	830 ± 110 nM	
